According to US7294637B2 (Sepracor, Inc., priority 2000, dated 2007):
pEC50, pIC50: −log10 of the molar value. Like-named read-outs stand apart in the source and are kept apart here.

Experiments:
serotonin transporter [1] = target: T1, serotonin transporter (Homo sapiens, UniProt P31645); assay: Functional activity, serotonin uptake inhibition in human HEK-293 cell lines; type: cell-based; parameters: expressed in transfected cells; host or cells: HEK-293; conditions: for EC50: 5-HT Uptake, Functional Assays (antagonism, EC50, nM)
T1 sequence (P31645 whole entry): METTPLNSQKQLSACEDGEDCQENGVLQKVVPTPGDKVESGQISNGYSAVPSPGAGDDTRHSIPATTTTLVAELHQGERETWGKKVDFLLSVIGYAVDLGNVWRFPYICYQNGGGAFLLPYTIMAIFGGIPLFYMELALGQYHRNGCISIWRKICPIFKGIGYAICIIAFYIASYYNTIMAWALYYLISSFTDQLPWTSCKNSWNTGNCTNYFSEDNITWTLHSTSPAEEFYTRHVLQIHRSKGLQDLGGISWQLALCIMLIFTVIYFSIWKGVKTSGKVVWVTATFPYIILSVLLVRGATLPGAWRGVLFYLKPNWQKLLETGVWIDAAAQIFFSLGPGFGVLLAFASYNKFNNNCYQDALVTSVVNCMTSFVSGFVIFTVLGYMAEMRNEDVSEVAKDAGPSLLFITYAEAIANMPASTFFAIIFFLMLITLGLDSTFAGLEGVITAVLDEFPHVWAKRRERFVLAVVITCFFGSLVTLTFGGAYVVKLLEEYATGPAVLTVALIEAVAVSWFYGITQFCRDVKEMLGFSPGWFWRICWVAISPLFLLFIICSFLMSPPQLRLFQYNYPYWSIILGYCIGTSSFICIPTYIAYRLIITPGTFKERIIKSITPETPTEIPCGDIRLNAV

Sprague-Dawley rats [2] = assay: Spontaneous locomotor activity in rats (Example 123); type: in vivo, rat; conditions: 20 mg/kg i.p., 60 minutes after administration
Method: Male Sprague-Dawley rats, (Iffa Credo, Saint-Germain/L'Arbresle, France), weighing 200-250 g at the beginning of the study, were used.
During acclimatization period, rats were housed, 2 or 3 per cage, in Makrolon type III cages, in the animal room (temperature: 20±2° C., humidity: minimum 45%, air changes:>12 per hour, light/dark cycle of 12 h/12 h [on at 7:00 A.M.]). Animals were allowed a minimum of 5 days period before experiment for acclimatization.
Rats received food (TrouwNutrition, Vigny, France) and water (tap water in water bottle) ad libitum. Rats were placed on a sawdust bedding in their cages (Goldchips, Trouw Nutrition, Vigny, France). On the day before experiments, food was withdrawn to have animals fasted overnight.
On the day of experiment, test item(s) were solubilized in 5% dextrose (w/v)/polyethylene glycol (PEG) 400 (4:1 v/v).
All test compounds were administered at 20 mg/kg as a single i.p. dose.
Twenty, 60 and 120 minutes after administration, rats were placed in a plastic box 30×30 cm in a room with low light intensity (maximum 50 lux). Locomotor activity was determined during 20 min periods using a video image analyzer (Videotrack, View Point, France). Number of occurences, distance and duration of fast and slow movements, number of occurences and duration of periods of inactivity and number of rears were measured.

DAT = DAT (Homo sapiens, UniProt Q01959); assay: cell-based; parameters: expressed in transfected cells; conditions: hDAT cell line; read-out: DA Uptake, Functional Assays (antagonism, EC50)
DAT, sequence (Q01959 whole entry): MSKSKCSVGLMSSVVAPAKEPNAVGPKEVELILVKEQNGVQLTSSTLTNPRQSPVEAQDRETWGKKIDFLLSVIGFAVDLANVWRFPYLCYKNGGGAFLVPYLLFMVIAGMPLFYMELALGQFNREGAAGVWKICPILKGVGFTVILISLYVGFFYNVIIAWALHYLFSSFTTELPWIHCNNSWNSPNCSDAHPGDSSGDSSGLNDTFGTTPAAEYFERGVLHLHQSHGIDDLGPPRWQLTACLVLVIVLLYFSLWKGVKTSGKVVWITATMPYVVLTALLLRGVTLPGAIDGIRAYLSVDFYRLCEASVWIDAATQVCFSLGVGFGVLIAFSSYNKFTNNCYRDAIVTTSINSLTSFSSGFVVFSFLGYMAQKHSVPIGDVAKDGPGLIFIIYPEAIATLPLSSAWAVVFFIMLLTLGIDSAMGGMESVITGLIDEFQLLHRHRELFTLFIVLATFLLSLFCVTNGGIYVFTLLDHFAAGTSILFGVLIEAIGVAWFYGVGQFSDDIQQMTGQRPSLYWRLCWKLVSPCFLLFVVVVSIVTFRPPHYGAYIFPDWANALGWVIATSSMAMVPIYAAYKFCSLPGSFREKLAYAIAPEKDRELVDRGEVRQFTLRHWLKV

dopamine transporter = dopamine transporter (Homo sapiens, UniProt Q01959); assay: DA uptake: displacement of dopamine ligands in vitro (methods of Gu et al.); conditions: DA Uptake, Uptake Profile (IC50, nM), displacement of dopamine ligands in vitro
dopamine transporter, sequence (Q01959 whole entry): as above

rat = assay: Acute toxicity assessment, maximum tolerated dose i.v., rat; type: in vivo; conditions: rats
Method: (§1) An in vivo evaluation was carried out to determine the maximum tolerated dose of numerous test compounds in two animal species (mouse and rat). The compounds were administered i.v. and the animals were then observed for 72 h. Compounds 114, 115, 113, 110, 124, 125, 129, and 130 were solubilized in 5% dextrose (w/v)/polyethylene glycol 400 (4:1 v/v). Compounds 126, 127, 131, and 132 were solubilized in 10% hydroxypropyl-β-cyclodextrin (w/v).

[3] = target: T2, norepinephrine transporter (Homo sapiens, UniProt P23975); assay: NE uptake: displacement of norephinephrine ligands in vitro (methods of Galli et al.); type: binding; conditions: for IC50: NE Uptake, Uptake Profile (IC50, nM)
T2 sequence (P23975 whole entry): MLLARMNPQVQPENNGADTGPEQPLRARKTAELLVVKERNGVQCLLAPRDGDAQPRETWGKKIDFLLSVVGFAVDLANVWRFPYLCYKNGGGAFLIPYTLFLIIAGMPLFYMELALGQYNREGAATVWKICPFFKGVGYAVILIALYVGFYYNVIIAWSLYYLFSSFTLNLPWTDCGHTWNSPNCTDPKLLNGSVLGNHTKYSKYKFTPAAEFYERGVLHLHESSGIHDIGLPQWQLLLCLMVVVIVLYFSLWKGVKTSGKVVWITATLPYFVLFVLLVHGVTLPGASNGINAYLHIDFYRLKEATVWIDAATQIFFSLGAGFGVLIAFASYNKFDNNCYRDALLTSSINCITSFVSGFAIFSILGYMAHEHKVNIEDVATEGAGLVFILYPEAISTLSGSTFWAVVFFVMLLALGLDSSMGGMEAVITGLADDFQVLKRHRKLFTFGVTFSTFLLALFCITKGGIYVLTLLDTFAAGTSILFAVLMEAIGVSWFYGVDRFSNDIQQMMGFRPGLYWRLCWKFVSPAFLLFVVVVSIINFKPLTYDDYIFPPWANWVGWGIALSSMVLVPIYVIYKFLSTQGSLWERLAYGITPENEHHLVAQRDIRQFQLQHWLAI

[4] = target: T2, norepinephrine transporter; assay: Functional activity, norephinephrine uptake inhibition in MDCK cell lines; type: cell-based
mouse = assay: Acute toxicity assessment, maximum tolerated dose i.v., mouse; type: in vivo; conditions: mice
Method: as §1

serotonin transporter [5] = target: T1, serotonin transporter; assay: 5-HT uptake: displacement of serotonin ligands in vitro (methods of Gu et al.); type: binding; conditions: for pIC50: read-out: 5-HT Uptake, Uptake Profile (IC50)
rats and monkeys = conditions: rats; cited from earlier work
Sprague-Dawley rats [6] = assay: Spontaneous locomotor activity in rats (Example 141); type: in vivo, rat
Method: The effect of 124 and 126 on spontaneous locomotor activity in rats was determined according to the procedures outlined by Silverman et al. (Motor Activity. In “Animal behavior in the laboratory”, Chapman and Hall eds, London, p. 79-92, 1978) and Boissier et al. (Arch. Int. Pharmacodyn. 1965, 158, 212. )
Test items and test item vehicles were administered to male Sprague-Dawley rats (n=10) as a single i.p. dose (vehicle A=10% hydroxypropyl-β-cyclodextrin in water; vehicle B=4:1 5% aqueous dextrose:PEG 400). […] Locomotor activity was determined during 20 minute periods using video image analyzers. Images recorded with video cameras were digitalized and displacements of the center of gravity of the digital image spot were tracked and analyzed. When the speed of displacement of the center of gravity of the spot was below 4.26 cm/sec, the movement was considered as inactivity. When this speed was between 4.26 and 6.75 cm/sec, the movement was considered as a small movement. When this speed was above 6.75 cm/sec, the movement was considered as a large movement. The number of occurrences, distance and duration of fast and slow movements, number of occurrences and duration of periods of inactivity and number of rears were measured.

rats [7] = type: in vivo, rat; conditions: 1 h before test
Method: The animals were preconditioned in a pretest session, where the rats were individually forced to swim inside a vertical plexiglass cylinder containing water maintained at 19-20° C. […] Twenty four hours later, the compounds were administered intraperitoneal to the animals. One hour after administration of the test compound, animals were put back into the cylinder containing water. The total duration of immobility was measured during the last 4 minutes of a 6 minute test.
(§2) The results are expressed as the percentage of variation of the total duration of immobility calculated from the mean value of the vehicle-treated group (% variation=[(immobility duration of vehicle-immobility duration of test compound)/(immobility duration of vehicle)]×100%).

Sprague-Dawley rats [8] = assay: Spontaneous locomotor activity in rats, 1-24 hours (Example 223); type: in vivo, rat; conditions: 10 mg/kg i.p.
Method: The effect of 124 and 126 on spontaneous locomotor activity in rats was determined according to the procedures outlined by Silverman et al. (Motor Activity. In “Animal behavior in the laboratory”, Chapman and Hall eds, London, p. 79-92, 1978) and Boissier et al. (Arch. Int. Pharmacodyn. 1965, 158, 212. ) Test items and test item vehicles were administered to male Sprague-Dawley rats (n=10) as a single i.p. dose. One, three, five, eight and twenty four hours following administration, rats were placed in a plastic box 30×30 cm in a room with low light intensity (maximum 50 lux). Locomotor activity was determined during 20 minute periods using video image analyzers. Images recorded with video cameras were digitalized and displacements of the center of gravity of the digital image spot were tracked and analyzed. When the speed of displacement of the center of gravity of the spot was below 4.26 cm/sec, the movement was considered as inactivity. When this speed was between 4.26 and 6.75 cm/sec, the movement was considered as a small movement. When this speed was above 6.75 cm/sec, the movement was considered as a large movement. The number of occurrences, distance and duration of fast and slow movements, number of occurrences and duration of periods of inactivity and number of rears were measured.

rats [9] = assay: Behavioral despair assay in rats, 3 i.p. injections (Example 143); type: in vivo, rat; conditions: for % variation of the total duration of immobility: 3 i.p. injections 24 h, 5 h and 1 h before test
From the text: The objective of this study was to assess the antidepressant effects of test compounds 124, 125, 126, and 127 in the behavioral despair assay in rats according to the methods described by Porsolt R. D., Anton G., Blavet N., Jalfre M., Behavioural despair in rats: a new model sensitive to antidepressant treatment, Eur. J. Pharmacol., 1978, 47, 379-391. The animals were preconditioned in a pretest session, where the rats were individually forced to swim inside a vertical plexiglass cylinder containing water maintained at 19-20° C. After 15 minutes in the water, they were allowed to dry for 15 minutes in a heated enclosure. Twenty four hours later, they were replaced in the cylinder and the total duration of immobility was measured during a 5 minute test (test session). The test compounds and vehicle were administered as a series of 3 intraperitoneal injections 24 h, 5 h and 1 h before the 5 minute test on the second day.
as §2

[10] = displacement of serotonin ligands in vitro

FC(F)(F)c1ccc(OC[C@H]2CCCN(CC3(c4ccc(Cl)cc4)CCC3)C2)cc1 [compound 115, (S)-1-[1-(4-chloro-phenyl)-cyclobutylmethyl]-3-(4-trifluoromethyl-phenoxymethyl)-piperidine]
EC50 (serotonin transporter [1]): > 1000 nM | locomotor activity compared to control animals (Sprague-Dawley rats [2]): significant increase | pEC50 (DAT): > 8.00 | IC50 (dopamine transporter): < 100 nM | tolerability and mortality after 72 h (rat; 30 mg/kg i.v.): well tolerated | IC50 [3]: < 1000 nM | pEC50 [4]: > 6.00 | tolerability and mortality after 72 h (mouse; 30 mg/kg i.v.): well tolerated | IC50 (serotonin transporter [5]; 5-HT Uptake, Uptake Profile (IC50, nM)): > 1000 nM

Clc1ccc(C2(CN3CCC[C@@H](COc4ccc5c(c4)OCO5)C3)CCC2)cc1 [compound 110, (R)-3-(Benzo[1,3]dioxol-5-yloxymethyl)-1-[1-(4-chloro-phenyl)-cyclobutylmethyl]-piperidine]
EC50 (serotonin transporter [1]): > 1000 nM | locomotor activity compared to control animals (Sprague-Dawley rats [2]): significant increase | pEC50 (DAT): > 8.00 | IC50 (dopamine transporter): < 100 nM | tolerability and mortality after 72 h (rat; 30 mg/kg i.v.): well tolerated | IC50 [3]: < 1000 nM | pEC50 [4]: > 6.00 | tolerability and mortality after 72 h (mouse; 30 mg/kg i.v.): well tolerated | pIC50 (serotonin transporter [5]; [10]): > 6.00

CNCCC(Oc1ccc(C(F)(F)F)cc1)c1ccccc1 (centres unmarked) [fluoxetine]
effect on self-administration of cocaine (rats and monkeys): decreased self-administration of cocaine

FC(F)(F)c1ccc(OC[C@@H]2CCCN(CC3(c4ccc(Cl)cc4)CCC3)C2)cc1 [compound 114, (R)-1-[1-(4-chloro-phenyl)-cyclobutylmethyl]-3-(4-trifluoromethyl-phenoxymethyl)-piperidine]
EC50 (serotonin transporter [1]): > 1000 nM | locomotor activity compared to control animals (Sprague-Dawley rats [2]): significant increase | pEC50 (DAT): > 8.00 | IC50 (dopamine transporter): < 100 nM | tolerability and mortality after 72 h (rat; 30 mg/kg i.v.): well tolerated | pIC50 ([3]; read-out: NE Uptake, Uptake Profile (IC50)): > 6.00 | pEC50 [4]: > 6.00 | tolerability and mortality after 72 h (mouse; 30 mg/kg i.v.): well tolerated | pIC50 (serotonin transporter [5]): < 6.00

O[C@H](CN1CCC[C@H](COc2ccc(C(F)(F)F)cc2)C1)C1(c2ccc(Cl)cc2)CCC1 [compound 124, 1S-1-[1-(4-Chloro-phenyl)-cyclobutyl]-2-[(3S)-3-(4-trifluoromethyl-phenoxymethyl)-piperidin-1-yl]-ethanol]
pEC50 (serotonin transporter [1]; human HEK-293 cell lines, read-out: 5-HT Uptake, Functional Assays (antagonism, EC50)): > 6.00 | pEC50 (DAT): > 8.00 | IC50 (dopamine transporter): < 10 nM | tolerability and mortality after 72 h (rat; 10 mg/kg i.v.): well tolerated | IC50 [3]: < 100 nM | Small Movement Occurrences (Sprague-Dawley rats [6]; 5 mg/kg i.p.): 484.5 ± 114.1 | Large Movement Occurrences (Sprague-Dawley rats [6]; 5 mg/kg i.p., 20 min): 228.7 ± 22.5 ^ | Small Movement Occurrences (Sprague-Dawley rats [6]; 5 mg/kg i.p., 20 min): 589.2 ± 50.4 ^ | Large Movement Occurrences (Sprague-Dawley rats [6]; 5 mg/kg i.p., 60 min): 74.3 ± 14.8 | Small Movement Occurrences (Sprague-Dawley rats [6]; 5 mg/kg i.p., 60 min): 232.8 ± 33.6 ^ | Large Movement Occurrences (Sprague-Dawley rats [6]; 5 mg/kg i.p., 120 min): 168.5 ± 61.5 ^ | Small Movement Occurrences (Sprague-Dawley rats [6]; 5 mg/kg i.p., 120 min): 443.1 ± 100.6 | Large Movement Occurrences (Sprague-Dawley rats [6]; 5 mg/kg i.p., 180 min): 212.5 ± 65.1 ^ | Large Movement Occurrences (Sprague-Dawley rats [6]; 10 mg/kg i.p., 20 min): 391.5 ± 63.3 | Small Movement Occurrences (Sprague-Dawley rats [6]; 10 mg/kg i.p., 20 min): 919.6 ± 96.4 | Large Movement Occurrences (Sprague-Dawley rats [6]; 10 mg/kg i.p., 60 min): 427.6 ± 95.8 | Small Movement Occurrences (Sprague-Dawley rats [6]; 10 mg/kg i.p., 60 min): 965.2 ± 153.9 | Large Movement Occurrences (Sprague-Dawley rats [6]; 10 mg/kg i.p., 120 min): 603.5 ± 97.4 | Small Movement Occurrences (Sprague-Dawley rats [6]; 10 mg/kg i.p., 120 min): 1201.4 ± 160.9 | locomotor activity compared to control animals (Sprague-Dawley rats [6]; dosed at 5 and 10 mg/kg i.p.): significant increase | % variation of the total duration of immobility (rats [7]; 2.5 mg/kg i.p.): 6% | % variation of the total duration of immobility (rats [7]; 10 mg/kg i.p.): 91% | Large Movement Occurrences (Sprague-Dawley rats [8]; 1 hour): 655 ± 83 | Small Movement Occurrences (Sprague-Dawley rats [8]; 1 hour): 1258 ± 83 | Large Movement Occurrences (Sprague-Dawley rats [8]; 3 hours): 751 ± 122 | Small Movement Occurrences (Sprague-Dawley rats [8]; 3 hours): 1386 ± 96 | Large Movement Occurrences (Sprague-Dawley rats [8]; 5 hours): 616 ± 82 | Small Movement Occurrences (Sprague-Dawley rats [8]; 5 hours): 1277 ± 100 | Large Movement Occurrences (Sprague-Dawley rats [8]; 8 hours): 455 ± 69 | Small Movement Occurrences (Sprague-Dawley rats [8]; 8 hours): 1042 ± 109 | Large Movement Occurrences (Sprague-Dawley rats [8]; 24 hours): 440 ± 55 | Small Movement Occurrences (Sprague-Dawley rats [8]; 24 hours): 934 ± 87 | locomotor activity compared to control animals (Sprague-Dawley rats [8]; at all times tested (1, 3, 5, 8, 24 hours)): significant increase | % variation of the total duration of immobility (rats [9]; 1.0 mg/kg): 29% | % variation of the total duration of immobility (rats [9]; 2.0 mg/kg): 71% | effectiveness (statistically significant variation >30%) (rats [9]; 2.5 mg/kg): effective | % variation of the total duration of immobility (rats [9]; 2.5 mg/kg): 59% | pEC50 [4]: > 6.00 | tolerability and mortality after 72 h (mouse; 10 mg/kg i.v.): well tolerated | pIC50 (serotonin transporter [5]; [10]): > 6.00
